Assay results taken from patent US9180107B2 (NANOPHARMACEUTICALS LLC, priority 2009, dated 2015).
Where two headings read alike, the source gives them in different places.

How the values were obtained:
[1] = tested on: Human glioblastoma U87MG cells; assay: Anti-proliferation (total cell counts) in bellows cell culture system with pharmacodynamic modeling; assay type: cell-based; conditions: for decrease in cell counts compared with untreated control cells: 7-d treatment; for IC50: Homo sapiens, U-87 MG, nano-tetrac IC50 are hypothetical concentrations assuming all bound tetrac is available
Procedure: Each cell culture system is a compressible (bellows) 500 mL bottle which contains cell culture medium and specially-treated polymer flakes to which cells spontaneously attach and grow. Through moving bellows and porous membranes, the level of the medium in the bottle changes periodically. Consequently, the cells are alternately submerged in the culture medium, then exposed to 5% CO2/95% air which creates a dynamic interface between air and medium on the cell surface that maximizes nutrient uptake and oxygen transfer. The system provides a low shear, high aeration and foam-free culture environment. Proprietary treatment of the surfaces of the flakes enables seating and harvesting of cells and secreted proteins are readily isolated from the perfusate.
In a non-perfusion bellows cell culture system that was also used, the medium in each bottle was replaced by fresh medium every 24 h. In the perfusion bellows cell culture system, medium was progressively refreshed over 24 h, i.e., one complete change of medium occurred over 24 h.
In establishing the system, 5×10^7 cells were seeded in perfusion and non-perfusion bellows bottles and incubated overnight at 37° C. After that, flakes were harvested, trypsinized and cells were collected. Cell numbers were counted. The numbers of cells that attached to were 10-15×10^6 per bottle. For experiments, the perfusion bellows cell culture system was run for 2 d prior to starting experiments. The cell numbers at this point were about 30-50×10^6 cells/bottle. Cell cultures were then exposed to 1% FBS-containing medium. Tetrac or nano-tetrac was added to the medium in the reservoir bottle to achieve the final concentrations reported for each experiment.
The time course of cell counts of the various cancer lines treated with different concentrations of tetrac or nano-tetrac was modeled by utilizing the pooled approach in NONMEM VI (version 6.2). All time points and treatment arms within each experiment were modeled simultaneously. A mechanism-based model (see Bulitta et al., 2009. Antimicrob. Agents Chemother. 53:46-56) was adapted to describe the proliferation of cancer cells and the inhibition of proliferation by tetrac. This model assumes two populations of cells in different phases of the cell cycle: cells that are preparing for replication (phase 1) and cells that are immediately “pre-replication” (phase 2). Cells transition from phase 1 to phase 2 by a first-order growth rate constant, while replication from phase 2 to phase 1 is assumed to be fast (see FIG. 2).
[formula] [formula] [formula] where C1 is the number of cells in phase 1, C2 the number of cells in phase 2, k21 the first order rate constant for replication (transition from phase 2 to phase 1), and k12 the first-order growth rate constant for transition from phase 1 to phase 2. The total number of cells Ct is the sum of C1 and C2. Rep is the replication efficiency factor which is described by:
[formula] where Cmax is the maximum number of cells. Without tetrac, the replication efficiency factor approaches 2, which reflects a 100% probability of successful replication. InhR describes the inhibitory effect of tetrac on the probability of successful replication:
[formula] Where ImaxR is the maximum effect of tetrac on probability of successful replication and IC50R is the tetrac concentration needed to achieve a half-maximal effect. Inhk describes the inhibitory effect of tetrac on the rate of growth:
[formula] Where Imaxk is the maximum effect of tetrac on rate of growth and IC50k is the tetrac concentration needed to achieve a half-maximal effect. Results

MDA-MB cells = assay: Pro-apoptotic gene expression by RT-PCR; assay type: cell-based, human; conditions: 10^−6 M
Procedure: MDA-MB cells were treated daily with 10^−6M of tetrac or nano-tetrac in bellows perfusion culture system. Cells were harvested after 3 days of treatment and total RNA was extracted. RT-PCR was conducted as described in Example 1, infra.
Total RNA was isolated as described previously. (See Lin et al., 2008. Carcinogenesis. 29:62-69). First strand complementary DNAs were synthesized from 1 μg of total RNA using oligo dT and AMV Reverse Transcriptase (Promega, Madison, Wis.). First-strand cDNA templates were amplified for GAPDH, c-fos, PIG3, c-Jun, and BAD mRNAs by polymerase chain reaction (PCR), using a hot start (Ampliwax, Perkin Elmer, Foster City, Calif.). Primer sequences were GAPDH [5′-[…]-3′ (forward) (SEQ ID NO: 1) and 5′-[…]-3′ (reverse) (SEQ ID NO:2)], c-fos [5′-[…]-3′(forward) (SEQ ID NO:3) and 5′-CAGTCA-[…]-3′ (reverse) (SEQ ID NO:4)], PIG3 [5′-[…]-[…]-3′(forward) (SEQ ID NO:5) and 5′-[…]-3′ (reverse) (SEQ ID NO:6)], c-jun [5′-[…]-3′ (forward) (SEQ ID NO:7) and 5′-[…]-3′ (reverse) (SEQ ID NO:8)] and BAD [5′-GTT-[…]-3′ (forward) (SEQ ID NO:9) and 5′-[…]-3′ (reverse) (SEQ ID NO:10)]. The PCR cycle was an initial step of 95° C. for 3 min, followed by 94° C. for 1 min, 55° C. for 1 min, 72° C. for 1 min, then 25 cycles and a final cycle of 72° C. for 8 min. […] Photographs were scanned under direct light for quantitation and illustration. […]

[2] = tested on: monkey kidney epithelial CV-1 cells; assay: Proliferation of non-malignant cells; assay type: cell-based, African green monkey; conditions: 10^−6M daily for 7 days
Procedure: FIG. 9 is a series of graphs showing the comparison of nano-tetrac and tetrac on cell proliferation in non-malignant cells. CV-1 cells (FIG. 9A) and 293 T cells (FIG. 9B) were treated daily with 10^−6 M tetrac or nano-tetrac. Cells were harvested at the time points indicated. Total cell numbers taken after each treatment were used as an indicator for tetrac- or nano-tetrac-induced anti-proliferation.
In order to confirm that tetrac and nano-tetrac only suppress cell proliferation in cancer cells, tetrac and nano-tetrac were also examined for potential anti-proliferative effects on immortalized non-malignant cells, using monkey kidney epithelial CV-1 cells and human embryonic kidney 293T cells. The cells were treated daily with either 10^−6M tetrac or 10^−6M nano-tetrac for 7 days, then were harvested, counted and examined microscopically.

[3] = U87MG, model parameter estimate

O=C(O)Cc1cc(I)c(Oc2cc(I)c(O)c(I)c2)c(I)c1 [tetrac, Tetraiodothyroacetic acid]
decrease in cell counts compared with untreated control cells ([1]; 10^−7 M): > 28% | decrease in cell counts compared with untreated control cells ([1]; 10^−8 M): more than 15% | IC50 ([1]; U87MG, model parameter estimate, read-out: IC50R (effect on success of replication)): 47.4 µM | IC50 ([1]; U87MG, model parameter estimate, read-out: IC50k (effect on rate of growth)): 0.047 µM | ImaxR (maximum effect on success of replication) [1, 3]: 0.92 | Imaxk (maximum effect on rate of growth) [1, 3]: 0.57 | expression of c-fos (MDA-MB cells): increased expression | expression of c-jun (MDA-MB cells): increased expression | change in cell numbers and morphology vs untreated control [2]: no significant change
